Reference: article PMC3382171 (PLoS ONE, 2012)

What was measured:
Assay in all cases: biochemical
Set-up in all cases: Invitrogen SelectScreen kinase panel, percent inhibition at 1 uM, ATP at Km
Settings in all cases: read-out: Invitrogen KSS %Inh at 1 µM
[1] = molecular target: AXL (Homo sapiens, UniProt P30530)
Protocol: (§1) The METi and RAFi were screened against kinase panels (SelectScreen, Invitrogen; University of Dundee, Division of Signal Transduction Therapy, UK; Upstate Biotechnology/Millipore, Billerica, MA). In these selectivity assays the concentration of ATP was set to the Km value of ATP for each kinase tested to allow for a relative potency comparison between the various kinases. The compounds were tested at 1 µM final concentration. […] Supplementary file pone.0039653.s002.pdf: Figure S2 Kinase Selectivity Screen of RAFi. (A) Kinase selectivity screen (KSS) performed at University of Dundee (Division of Signal Transduction Therapy). Values in % inhibition of phosphorylation given 1 µM of RAFi compared to control. (B) KSS performed at Invitrogen (Selectscreen Service) compared to control. Values in % inhibition of phosphorylation given 1 µM of RAFi. (C) Cell based dose response kinase inhibition of indicated kinases by RAFi. (PDF) Click here for additional data file.

[2] = molecular target: BMX (Homo sapiens, UniProt P51813)
Protocol: as §1

[3] = molecular target: CDK2/CyclinA (Homo sapiens, UniProt P24941)
Protocol: as §1

[4] = molecular target: T1, CDK5/p35 (Homo sapiens, UniProt Q00535)
T1 construct: p35
T1 sequence (Q00535 whole entry): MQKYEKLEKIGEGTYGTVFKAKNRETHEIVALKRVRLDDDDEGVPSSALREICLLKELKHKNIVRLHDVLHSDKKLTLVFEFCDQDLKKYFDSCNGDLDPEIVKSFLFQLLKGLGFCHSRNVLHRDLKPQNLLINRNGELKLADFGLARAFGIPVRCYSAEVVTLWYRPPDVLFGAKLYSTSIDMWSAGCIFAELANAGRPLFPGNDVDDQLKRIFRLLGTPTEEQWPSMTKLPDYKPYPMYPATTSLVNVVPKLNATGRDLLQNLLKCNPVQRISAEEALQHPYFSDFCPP
T1 sequence (Q15078 whole entry partner): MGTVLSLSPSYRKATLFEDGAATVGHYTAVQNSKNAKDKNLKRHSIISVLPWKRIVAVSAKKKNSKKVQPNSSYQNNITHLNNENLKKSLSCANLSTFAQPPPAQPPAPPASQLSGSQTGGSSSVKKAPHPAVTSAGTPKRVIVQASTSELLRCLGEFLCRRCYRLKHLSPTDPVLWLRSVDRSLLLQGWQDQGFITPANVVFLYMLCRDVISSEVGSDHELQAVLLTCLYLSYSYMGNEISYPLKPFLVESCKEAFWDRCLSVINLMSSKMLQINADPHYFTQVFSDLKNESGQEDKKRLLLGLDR
Protocol: as §1

[5] = molecular target: CSNK2A1 (CK2 alpha 1) (Homo sapiens, UniProt P68400)
Sequence of CSNK2A1 (CK2 alpha 1) (P68400 whole entry): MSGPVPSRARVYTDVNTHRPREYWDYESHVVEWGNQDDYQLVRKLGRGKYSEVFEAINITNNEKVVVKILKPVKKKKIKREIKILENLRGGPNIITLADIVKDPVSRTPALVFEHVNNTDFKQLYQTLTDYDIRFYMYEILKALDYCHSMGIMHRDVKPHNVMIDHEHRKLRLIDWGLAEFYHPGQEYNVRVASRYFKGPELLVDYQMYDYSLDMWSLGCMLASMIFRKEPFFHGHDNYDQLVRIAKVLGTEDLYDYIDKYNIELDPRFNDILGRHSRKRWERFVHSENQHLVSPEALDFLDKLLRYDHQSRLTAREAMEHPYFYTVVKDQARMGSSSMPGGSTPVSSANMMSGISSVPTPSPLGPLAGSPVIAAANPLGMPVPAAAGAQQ
Protocol: as §1

[6] = molecular target: FER (Homo sapiens, UniProt P16591)
Protocol: as §1

[7] = molecular target: FLT3 (Homo sapiens, UniProt P36888)
Protocol: as §1

[8] = molecular target: MAP2K6 (MKK6) (Homo sapiens, UniProt P52564)
Sequence of MAP2K6 (MKK6) (P52564 whole entry): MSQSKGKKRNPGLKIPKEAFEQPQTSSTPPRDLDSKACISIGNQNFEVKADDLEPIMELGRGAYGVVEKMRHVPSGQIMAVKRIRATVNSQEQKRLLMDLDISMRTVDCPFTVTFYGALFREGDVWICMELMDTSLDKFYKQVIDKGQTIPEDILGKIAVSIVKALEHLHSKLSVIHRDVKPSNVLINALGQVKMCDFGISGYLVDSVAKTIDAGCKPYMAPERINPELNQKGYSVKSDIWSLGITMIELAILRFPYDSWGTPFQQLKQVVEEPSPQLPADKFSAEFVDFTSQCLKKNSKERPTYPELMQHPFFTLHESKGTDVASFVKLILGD
Protocol: as §1

[9] = molecular target: MAPK10 (JNK3) (Homo sapiens, UniProt P53779)
Protocol: as §1

[10] = molecular target: MAPK8 (JNK1) (Homo sapiens, UniProt P45983)
Protocol: as §1

[11] = molecular target: MARK2 (Homo sapiens, UniProt Q7KZI7)
Protocol: as §1

[12] = molecular target: MST1R (RON) (Homo sapiens, UniProt Q04912)
Protocol: as §1

[13] = molecular target: NTRK2 (TRKB) (Homo sapiens, UniProt Q16620)
Protocol: as §1

[14] = molecular target: PIK3CG (p110 gamma) (Homo sapiens, UniProt P48736)
Sequence of PIK3CG (p110 gamma) (P48736 whole entry): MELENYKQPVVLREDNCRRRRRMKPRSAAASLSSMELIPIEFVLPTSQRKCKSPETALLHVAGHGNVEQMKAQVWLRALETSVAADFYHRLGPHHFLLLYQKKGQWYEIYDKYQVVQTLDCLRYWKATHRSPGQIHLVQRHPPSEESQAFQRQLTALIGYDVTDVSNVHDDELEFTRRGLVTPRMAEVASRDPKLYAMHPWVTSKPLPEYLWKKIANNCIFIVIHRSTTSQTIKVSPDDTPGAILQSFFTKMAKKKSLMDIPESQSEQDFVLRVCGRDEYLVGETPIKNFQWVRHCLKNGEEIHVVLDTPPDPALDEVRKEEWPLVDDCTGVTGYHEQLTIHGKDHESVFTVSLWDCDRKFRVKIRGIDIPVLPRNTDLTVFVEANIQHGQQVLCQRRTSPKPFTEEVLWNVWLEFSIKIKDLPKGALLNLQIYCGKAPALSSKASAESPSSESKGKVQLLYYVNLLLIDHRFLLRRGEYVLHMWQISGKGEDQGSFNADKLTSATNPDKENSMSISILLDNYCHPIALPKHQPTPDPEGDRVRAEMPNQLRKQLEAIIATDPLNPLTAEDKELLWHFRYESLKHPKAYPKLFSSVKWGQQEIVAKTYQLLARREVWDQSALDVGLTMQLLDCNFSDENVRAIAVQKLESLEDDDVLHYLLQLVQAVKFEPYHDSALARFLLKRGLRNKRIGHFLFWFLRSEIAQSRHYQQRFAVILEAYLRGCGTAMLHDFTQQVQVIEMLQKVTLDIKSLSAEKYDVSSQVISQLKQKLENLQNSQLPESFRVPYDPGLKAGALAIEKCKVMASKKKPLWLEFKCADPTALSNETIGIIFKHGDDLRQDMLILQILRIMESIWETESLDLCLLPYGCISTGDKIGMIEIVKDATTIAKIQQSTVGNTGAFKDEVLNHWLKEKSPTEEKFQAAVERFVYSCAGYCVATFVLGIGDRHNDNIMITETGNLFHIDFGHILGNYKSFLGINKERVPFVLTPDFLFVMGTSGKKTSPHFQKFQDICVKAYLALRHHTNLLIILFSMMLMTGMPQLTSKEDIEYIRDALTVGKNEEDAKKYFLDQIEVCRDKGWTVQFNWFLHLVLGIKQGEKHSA
Protocol: as §1

[15] = molecular target: PRKCG (PKC gamma) (Homo sapiens, UniProt P05129)
Protocol: as §1

[16] = molecular target: PRKCQ (PKC theta) (Homo sapiens, UniProt Q04759)
Protocol: as §1

[17] = molecular target: PRKD1 (PKC mu) (Homo sapiens, UniProt Q15139)
Protocol: as §1

[18] = molecular target: PRKD2 (PKD2) (Homo sapiens, UniProt Q9BZL6)
Protocol: as §1

[19] = molecular target: RET (Homo sapiens, UniProt P07949)
Protocol: as §1

[20] = molecular target: SRC (Homo sapiens, UniProt P12931)
Sequence of SRC (P12931 whole entry): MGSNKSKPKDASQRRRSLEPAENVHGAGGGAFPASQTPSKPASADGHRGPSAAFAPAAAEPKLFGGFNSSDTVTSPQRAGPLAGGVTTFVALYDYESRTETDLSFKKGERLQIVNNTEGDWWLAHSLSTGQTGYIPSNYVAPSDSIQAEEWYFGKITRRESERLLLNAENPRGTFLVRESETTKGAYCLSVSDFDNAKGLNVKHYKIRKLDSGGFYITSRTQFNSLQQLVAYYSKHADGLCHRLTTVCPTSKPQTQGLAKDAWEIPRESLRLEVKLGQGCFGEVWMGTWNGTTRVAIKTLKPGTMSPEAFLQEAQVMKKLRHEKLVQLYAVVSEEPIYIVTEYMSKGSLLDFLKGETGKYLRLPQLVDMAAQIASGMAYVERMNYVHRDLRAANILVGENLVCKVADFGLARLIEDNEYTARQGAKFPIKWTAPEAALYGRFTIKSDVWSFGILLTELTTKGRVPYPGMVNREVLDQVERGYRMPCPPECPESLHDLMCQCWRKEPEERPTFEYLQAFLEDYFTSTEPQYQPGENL
Protocol: as §1

[21] = molecular target: STK22B (TSSK2) (Homo sapiens, UniProt Q96PF2)
Sequence of STK22B (TSSK2) (Q96PF2 whole entry): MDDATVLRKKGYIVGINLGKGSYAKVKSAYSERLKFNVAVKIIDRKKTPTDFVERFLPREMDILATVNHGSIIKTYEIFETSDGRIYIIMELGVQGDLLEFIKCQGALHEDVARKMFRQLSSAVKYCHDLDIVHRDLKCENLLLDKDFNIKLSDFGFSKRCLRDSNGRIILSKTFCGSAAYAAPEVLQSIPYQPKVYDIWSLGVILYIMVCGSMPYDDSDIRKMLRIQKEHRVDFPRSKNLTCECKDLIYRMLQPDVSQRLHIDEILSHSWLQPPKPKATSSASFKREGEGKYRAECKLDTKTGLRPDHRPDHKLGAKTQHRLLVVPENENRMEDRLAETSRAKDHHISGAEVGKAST
Protocol: as §1

[22] = molecular target: TBK1 (Homo sapiens, UniProt Q9UHD2)
Sequence of TBK1 (Q9UHD2 whole entry): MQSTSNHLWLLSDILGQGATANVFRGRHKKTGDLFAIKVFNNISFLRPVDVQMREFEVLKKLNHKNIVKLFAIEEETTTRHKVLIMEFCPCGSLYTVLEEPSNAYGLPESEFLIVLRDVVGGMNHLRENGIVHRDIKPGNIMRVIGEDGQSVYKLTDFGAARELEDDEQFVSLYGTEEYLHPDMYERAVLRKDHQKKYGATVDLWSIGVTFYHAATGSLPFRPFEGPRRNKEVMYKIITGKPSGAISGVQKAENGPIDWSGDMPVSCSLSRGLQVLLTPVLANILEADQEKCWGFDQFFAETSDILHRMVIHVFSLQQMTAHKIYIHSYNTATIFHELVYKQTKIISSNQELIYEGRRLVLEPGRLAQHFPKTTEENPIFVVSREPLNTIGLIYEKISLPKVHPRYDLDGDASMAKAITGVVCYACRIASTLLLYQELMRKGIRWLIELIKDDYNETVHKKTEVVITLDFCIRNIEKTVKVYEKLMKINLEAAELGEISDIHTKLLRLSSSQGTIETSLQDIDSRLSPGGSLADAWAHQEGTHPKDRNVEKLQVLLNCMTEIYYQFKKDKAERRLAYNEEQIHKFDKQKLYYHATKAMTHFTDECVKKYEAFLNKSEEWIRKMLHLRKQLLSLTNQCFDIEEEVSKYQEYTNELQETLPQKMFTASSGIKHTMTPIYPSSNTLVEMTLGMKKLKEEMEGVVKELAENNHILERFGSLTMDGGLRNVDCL
Protocol: as §1

Sequence of AXL (P30530 whole entry): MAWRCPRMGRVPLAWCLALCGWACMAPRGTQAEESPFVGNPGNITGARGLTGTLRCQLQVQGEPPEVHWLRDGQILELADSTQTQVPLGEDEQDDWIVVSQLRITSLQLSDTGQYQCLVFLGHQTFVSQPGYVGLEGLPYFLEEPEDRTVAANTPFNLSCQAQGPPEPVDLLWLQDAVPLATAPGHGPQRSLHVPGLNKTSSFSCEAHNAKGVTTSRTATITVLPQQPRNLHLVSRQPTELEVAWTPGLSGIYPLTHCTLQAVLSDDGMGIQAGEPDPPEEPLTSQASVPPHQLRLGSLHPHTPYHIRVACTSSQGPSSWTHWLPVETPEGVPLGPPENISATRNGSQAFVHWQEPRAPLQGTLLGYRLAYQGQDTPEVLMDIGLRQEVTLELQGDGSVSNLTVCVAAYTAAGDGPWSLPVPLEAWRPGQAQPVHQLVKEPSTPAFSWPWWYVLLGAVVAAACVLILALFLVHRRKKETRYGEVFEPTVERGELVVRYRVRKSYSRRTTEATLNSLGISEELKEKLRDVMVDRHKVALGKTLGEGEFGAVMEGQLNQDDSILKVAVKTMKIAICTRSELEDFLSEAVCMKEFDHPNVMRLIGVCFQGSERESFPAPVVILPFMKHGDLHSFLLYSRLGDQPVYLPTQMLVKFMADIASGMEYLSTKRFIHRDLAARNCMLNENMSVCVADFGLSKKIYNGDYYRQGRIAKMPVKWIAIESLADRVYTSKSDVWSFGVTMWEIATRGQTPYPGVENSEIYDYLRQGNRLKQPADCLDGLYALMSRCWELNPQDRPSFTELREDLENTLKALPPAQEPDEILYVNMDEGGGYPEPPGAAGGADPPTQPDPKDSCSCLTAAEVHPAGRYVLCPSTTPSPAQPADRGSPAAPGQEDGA

In the case of `N#CCCNc1nccc(-c2cn(CC(F)F)nc2-c2cnc3[nH]ccc3c2)n1` [RAFi, PF-04880594], the inhibition at 1 µM [1] is reported as -1%, the inhibition at 1 µM [2] is reported as -3% and the inhibition at 1 µM [3] is reported as 18%. For the same molecule, the inhibition at 1 µM [4] was 9%, the inhibition at 1 µM [5] was -1% and the inhibition at 1 µM [6] was -2%. The inhibition at 1 µM [7] was 61%, the inhibition at 1 µM [8] was 12% and the inhibition at 1 µM [9] was 81%. For the same molecule, the inhibition at 1 µM [10] was 31%, the inhibition at 1 µM [11] was 9% and the inhibition at 1 µM [12] was 2%. For the same molecule, the inhibition at 1 µM [13] was 23%, the inhibition at 1 µM [14] was 12% and the inhibition at 1 µM [15] was -15%. It also gave an inhibition at 1 µM [16] of -2%, an inhibition at 1 µM [17] of 37% and an inhibition at 1 µM [18] of 40%. The inhibition at 1 µM [19] was 12%, the inhibition at 1 µM [20] was 1% and the inhibition at 1 µM [21] was 2%. The inhibition at 1 µM [22] was -7%.
